Experimental data from US7759339B2, “Hydroxysteroid dehydrogenase inhibitors” (Takeda San Diego, Inc., priority 2005, dated 2010).

Target: T1, 11b-HSD1 (Homo sapiens, UniProt P28845)
T1 construct: made in house; host or cells: E. coli DH10b-Tir
Experiment: in vitro enzymatic 11b-HSD1 dehydrogenase activity assay
Type: biochemical
Details: 11b-HSD1 dehydrogenase assay; 10 μM each of cortisol and NADP+, 50 nM enzyme, 60 minutes at room temperature; reference point for this assay

T1 sequence (P28845 24-292): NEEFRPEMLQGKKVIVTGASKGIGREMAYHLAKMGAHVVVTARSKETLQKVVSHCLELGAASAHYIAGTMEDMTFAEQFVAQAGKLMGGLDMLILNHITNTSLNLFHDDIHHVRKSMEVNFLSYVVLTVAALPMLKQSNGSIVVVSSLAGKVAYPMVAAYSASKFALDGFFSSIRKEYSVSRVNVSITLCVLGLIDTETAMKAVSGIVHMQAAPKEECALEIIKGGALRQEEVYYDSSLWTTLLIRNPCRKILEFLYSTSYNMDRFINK

IC50: 500 nM
Structure (SMILES): CCN(CC)C(=O)Cc1csc(NS(=O)(=O)c2cccc(Cl)c2C)n1 [BVT14225]
